Key:
C. parvum oocysts = assay: Mouse Cryptosporidium challenge, infection level in intestines by qPCR; type: in vivo, Cryptosporidium parvum; conditions: FIG. 2
Procedure: Sodium percarbonate (“NPC”) at 0.26 mg/head, 12.5 mg/head, or 450 mg/head was tested in a Cryptosporidium challenge in mice. Eight-day-old ICR or CD-1 mice were divided into treatment (UA) and control (water) groups (n=10/group). Mice were infected with 1×10^4 C. parvum oocysts by oral inoculation. At the time of infection, and for every 12 hours thereafter, mice were treated with 100 μl per dose of NPC or water. A total of 8 doses per mouse were administered before termination of the challenge and collection of the intestines. The experiment was repeated twice (“Challenges I and II”). Infection levels were determined by qPCR against a known standard curve of C. parvum organisms.

C. parvum sporozoites = assay: In vitro Cryptosporidium exposure: C. parvum sporozoites mixed with treatment, added to HCT-8 cells, qPCR of COWP gene; type: cell-based; conditions: all treatment concentrations (0.26, 2.08, 3.125, 6.25, 12.5, 18.75, 25, 450 mg/L); p<0.05; FIG. 1
Procedure: (§1) Sodium percarbonate (0.26, 2.08, 3.125, 6.25, 12.5, 18.75, 25, or 450 mg/L) was tested for its ability to neutralize C. parvum sporozoites in host epithelial cells. HCT-8 (human ileocecal adenocarcinoma) cells were grown in a monolayer to 85-90% confluency in RPMI-1640 medium. Freshly excysted, washed C. parvum sporozoites were mixed with a sodium percarbonate treatment and then added to HCT-8 cells at 1.25×10^6 sporozoites per monolayer. The cells were incubated with the sporozoites for 2 hours at 10% CO2, 37° C. Cells were then washed and incubated in fresh media for 22 hours. Infected, untreated cells served as a control. After incubation, infected cells were harvested and DNA was isolated. The number of C. parvum were quantified using qPCR for the Cryptosporidium oocyst wall protein (COWP) gene.

[1] = test system: C. parvum sporozoites excysted from oocysts shed by infected calves; assay: Infectivity of Cryptosporidium oocysts shed by treated calves, excysted and tested on HCT-8 cells; type: cell-based, Cryptosporidium parvum; conditions: FIG. 8
Procedure: as §1, with “HCT-8” for “Sodium percarbonate (0.26, 2.08, 3.125, 6.25, 12.5, 18.75, 25, or 450 mg/L) was tested for its ability to neutralize C. parvum sporozoites in host epithelial cells. HCT-8”
Oocysts were collected from feces of calves in the control and treatment groups of Example 3 on multiple days during the duration of the study. The oocysts were excysted and analyzed to ensure equal excystation rates between the four treatment groups. HCT-8 cells were infected, harvested, and processed as described in Example 1.

[2] = test system: C. parvum oocysts (Iowa isolate); assay: Clinical calf cryptosporidiosis trial (oocyst shedding, body weight, feces, clinical scores); type: in vivo, Cryptosporidium parvum; conditions: for daily number of oocysts shed compared to control group: FIG. 3; for decrease in weight over the course of the trial: FIG. 5

**Q.** What does the source list for `O=C([O-])[O-].O=C([O-])[O-].OO.OO.OO.[Na+].[Na+].[Na+].[Na+]` [sodium percarbonate]?
**A.** dose dependence of percent reduction in C. parvum infection (C. parvum oocysts; mice, 0.26, 12.5, 450 mg/head): increased as treatment dose increased; percent reduction in C. parvum infection compared to control (C. parvum oocysts; mice, 450 mg/head, 8 doses every 12 hours, oral): 89.9%; reduction in infection by C. parvum sporozoites of HCT-8 cells compared to untreated control (C. parvum sporozoites): significantly reduced infected; ability of shed oocysts to infect HCT-8 cells compared with oocysts from untreated calves ([1]; oocysts from calves treated with high-dose (1000 mg BID) sodium percarbonate): reduced ability to infect HCT-8 cells; ability of shed oocysts to infect HCT-8 cells compared with oocysts from untreated calves ([1]; oocysts from calves treated with low-dose (500 mg BID) sodium percarbonate): reduced ability to infect HCT-8 cells; daily number of oocysts shed compared to control group ([2]; calves, 500 mg NPC BID in milk replacer, p<0.05): significantly fewer oocysts on Days 4-6 and 9-10 PI; reduction of mean total number of oocysts shed over the trial compared to control group ([2]; calves, 500 mg NPC BID, Days 3-10 PI, p<0.05, FIG. 4): about 24%; daily number of oocysts shed compared to control group ([2]; calves, 1000 mg NPC BID in milk replacer, p<0.05): significantly fewer oocysts on Days 6 and 10 PI; decrease in weight over the course of the trial ([2]; infected calves, H-NPC (1000 mg NPC BID)): 3.6%; decrease in weight over the course of the trial ([2]; infected calves, L-NPC (500 mg NPC BID)): 2.5%; weight loss compared to the control group ([2]; infected calves, both NPC treatment groups (500 and 1000 mg BID)): tended to lose less weight

From patent US12599628B2, “Mitigation of cryptosporidiosis using hydrogen peroxide-generating compositions” (Purina Animal Nutrition, LLC, priority 2021, dated 2026)
